Source: patent US8067424B2, “Selective inhibitors for cyclin-dependent kinases” (Emory University, priority 2007, dated 2011)
Like-named read-outs stand apart in the source and are kept apart here.

Assays:
MCF-7 tumors = assay: MCF-7 tumor growth in nude mice, BS-181 i.p.; format: in vivo, nu/nu-BALB/c athymic nude mice; conditions: i.p. twice daily, 14 days
Description: This example illustrates that BS-181 is capable of inhibiting MCF-7 tumor growth in nude mice. The following protocol was used in these mouse xenograft experiments. Female, 7-week-old, nu/nu-BALB/c athymic nude mice were purchased from Harlan Olac Ltd. The animals were housed in isolated ventilator cages (IVC) in a 12-h light/dark cycle. The animals received sterilized water and sterile rodent food ad libitum. All procedures were approved by the CBS, Imperial College London Ethics Committee and were covered by a Government Home Office project license for these specific studies. Before inoculation of animal with cells, a 0.72 mg 17β Estradiol 60-day release pellet was implanted subcutaneously (Innovative Research of America, USA). For insertion, animals were anaesthetised, an incision was made to the flank of the animals under aseptic conditions and pellets were implanted. The wound was closed with stainless steel sutures. MCF-7 cells (5×10^6 cells) were injected subcutaneously in not more than 0.1 ml volume into the flank of the animals. Tumor measurements were performed twice per week, and volumes were calculated using the formula ½ [length (mm)]×[width (mm)]^2. […] Throughout the 14-day treatment period animal weights were determined each day and tumor volume every 48 hours.

MDA-MB-231/ATCC = conditions: for Mean Optical Densities / Percent Growth: MDA-MB-231/ATCC
T-47D = conditions: for Mean Optical Densities / Percent Growth: T-47D
K-562 = assay: cells; conditions: Homo sapiens
NCI-H226 = assay: cells; conditions: Homo sapiens
HT29 = assay: cells; conditions: Homo sapiens
SK-MEL-2 = assay: cells; conditions: Homo sapiens
OVCAR-8 = assay: cells; conditions: Homo sapiens
A498 = assay: cells; conditions: Homo sapiens
DU-145 = assay: cells; conditions: Homo sapiens
HS 578T = assay: cells; conditions: Homo sapiens
BT-549 = assay: cells; conditions: Homo sapiens
[1] = COLO 205, log10 concentration −4.0
[2] = COLO 205, log10 concentration −5.0
[3] = COLO 205, log10 concentration −6.0
[4] = COLO 205, log10 concentration −7.0
[5] = COLO 205, log10 concentration −8.0
[6] = SK-MEL-5, log10 concentration −4.0
[7] = SK-MEL-5, log10 concentration −5.0
[8] = SK-MEL-5, log10 concentration −6.0
[9] = SK-MEL-5, log10 concentration −7.0
[10] = SK-MEL-5, log10 concentration −8.0
[11] = UACC-62, log10 concentration −4.0
[12] = UACC-62, log10 concentration −5.0
[13] = UACC-62, log10 concentration −6.0
[14] = UACC-62, log10 concentration −7.0
[15] = UACC-62, log10 concentration −8.0
[16] = MDA-MB-435, log10 concentration −4.0
[17] = MDA-MB-435, log10 concentration −5.0
[18] = MDA-MB-435, log10 concentration −6.0
[19] = MDA-MB-435, log10 concentration −7.0
[20] = MDA-MB-435, log10 concentration −8.0

With `CC(C)c1cnn2c(NCc3ccccc3)cc(NCCCCCCCN)nc12` [BS-181] the “Change in animal weight” value (MCF-7 tumors) was “nearly constant” and the “Increase in tumor volume relative to day one” value (MCF-7 tumors; different doses) was “increased more slowly with increasing dosage”.

In the case of `CC(C)c1cnn2c(NCc3ccccc3)cc(N[C@@H](CO)[C@H](O)CO)nc12` [ICEC0318, (3S)-3-(7-(Benzylamino)-3-isopropylpyrazolo[1,5-a]pyrimidin-5-ylamino)butane-1,2,4-triol], the TGI (COLO 205; COLO 205 (Colon Cancer)) is reported as 3.82E−7, the “Mean Optical Densities” value (COLO 205; [1]) is reported as 0.030 and the “Percent Growth” value (COLO 205; [1]) is reported as −77%. The “Mean Optical Densities” value (COLO 205; [2]) was 0.050, the “Percent Growth” value (COLO 205; [2]) was −62% and the “Mean Optical Densities” value (COLO 205; [3]) was 0.065. For the same molecule, the “Percent Growth” value (COLO 205; [3]) was −50%, the “Mean Optical Densities” value (COLO 205; [4]) was 0.372 and the “Percent Growth” value (COLO 205; [4]) was 70%. For the same molecule, the “Mean Optical Densities” value (COLO 205; [5]) was 0.499, the “Percent Growth” value (COLO 205; [5]) was 107% and the TGI (SK-MEL-5; SK-MEL-5 (Melanoma)) was 5.33E−7. For the same molecule, the “Mean Optical Densities” value (SK-MEL-5; [6]) was 0.260, the “Percent Growth” value (SK-MEL-5; [6]) was −58% and the “Mean Optical Densities” value (SK-MEL-5; [7]) was 0.275. The “Percent Growth” value (SK-MEL-5; [7]) was −56%, the “Mean Optical Densities” value (SK-MEL-5; [8]) was 0.427 and the “Percent Growth” value (SK-MEL-5; [8]) was −31%. For the same molecule, the “Mean Optical Densities” value (SK-MEL-5; [9]) was 2.036, the “Percent Growth” value (SK-MEL-5; [9]) was 82% and the “Mean Optical Densities” value (SK-MEL-5; [10]) was 2.375. For the same molecule, the “Percent Growth” value (SK-MEL-5; [10]) was 102%, the TGI (UACC-62; UACC-62 (Melanoma)) was 3.16E−7 and the “Mean Optical Densities” value (UACC-62; [11]) was 0.078. The “Percent Growth” value (UACC-62; [11]) was −90%, the “Mean Optical Densities” value (UACC-62; [12]) was 0.165 and the “Percent Growth” value (UACC-62; [12]) was −78%. For the same molecule, the “Mean Optical Densities” value (UACC-62; [13]) was 0.142, the “Percent Growth” value (UACC-62; [13]) was −81% and the “Mean Optical Densities” value (UACC-62; [14]) was 1.821. For the same molecule, the “Percent Growth” value (UACC-62; [14]) was 81%, the “Mean Optical Densities” value (UACC-62; [15]) was 2.110 and the “Percent Growth” value (UACC-62; [15]) was 102%. The TGI (MDA-MB-231/ATCC; MDA-MB-231/ATCC (Breast Cancer)) was >1.00E−4, the “Mean Optical Densities” value (MDA-MB-231/ATCC; log10 concentration −4.0) was 0.482 and the “Percent Growth” value (MDA-MB-231/ATCC; log10 concentration −4.0) was 11%. For the same molecule, the “Mean Optical Densities” value (MDA-MB-231/ATCC; log10 concentration −5.0) was 0.529, the “Percent Growth” value (MDA-MB-231/ATCC; log10 concentration −5.0) was 19% and the “Mean Optical Densities” value (MDA-MB-231/ATCC; log10 concentration −6.0) was 0.548. The “Percent Growth” value (MDA-MB-231/ATCC; log10 concentration −6.0) was 22%, the “Mean Optical Densities” value (MDA-MB-231/ATCC; log10 concentration −7.0) was 1.039 and the “Percent Growth” value (MDA-MB-231/ATCC; log10 concentration −7.0) was 101%. The “Mean Optical Densities” value (MDA-MB-231/ATCC; log10 concentration −8.0) was 1.087, the “Percent Growth” value (MDA-MB-231/ATCC; log10 concentration −8.0) was 109% and the TGI (MDA-MB-435; MDA-MB-435 (Breast Cancer)) was 1.15E−5. For the same molecule, the “Mean Optical Densities” value (MDA-MB-435; [16]) was 0.242, the “Percent Growth” value (MDA-MB-435; [16]) was −48% and the “Mean Optical Densities” value (MDA-MB-435; [17]) was 0.511. The “Percent Growth” value (MDA-MB-435; [17]) was 3%, the “Mean Optical Densities” value (MDA-MB-435; [18]) was 0.659 and the “Percent Growth” value (MDA-MB-435; [18]) was 13%. For the same molecule, the “Mean Optical Densities” value (MDA-MB-435; [19]) was 1.781, the “Percent Growth” value (MDA-MB-435; [19]) was 86% and the “Mean Optical Densities” value (MDA-MB-435; [20]) was 2.132. The “Percent Growth” value (MDA-MB-435; [20]) was 109%, the TGI (T-47D; T-47D (Breast Cancer)) was 2.55E−6 and the “Mean Optical Densities” value (T-47D; log10 concentration −4.0) was 0.479. For the same molecule, the “Percent Growth” value (T-47D; log10 concentration −4.0) was −12%, the “Mean Optical Densities” value (T-47D; log10 concentration −5.0) was 0.516 and the “Percent Growth” value (T-47D; log10 concentration −5.0) was −5%. The “Mean Optical Densities” value (T-47D; log10 concentration −6.0) was 0.565, the “Percent Growth” value (T-47D; log10 concentration −6.0) was 3% and the “Mean Optical Densities” value (T-47D; log10 concentration −7.0) was 1.199. The “Percent Growth” value (T-47D; log10 concentration −7.0) was 94%, the “Mean Optical Densities” value (T-47D; log10 concentration −8.0) was 1.266 and the “Percent Growth” value (T-47D; log10 concentration −8.0) was 103%. The GI50 (K-562; K562) was 288 nM, the CC50 (K-562; K562, read-out: LC50) was > 100000 nM and the GI50 (NCI-H226; NCI-H226) was 272 nM. The CC50 (NCI-H226; NCI-H226, read-out: LC50) was > 100000 nM, the GI50 (HT29; HT-29) was 336 nM and the CC50 (HT29; HT-29, read-out: LC50) was > 100000 nM. For the same molecule, the GI50 (SK-MEL-2; SK-MEL-2) was 404 nM, the CC50 (SK-MEL-2; SK-MEL-2, read-out: LC50) was > 100000 nM and the GI50 (OVCAR-8; OVCAR-8) was 340 nM. For the same molecule, the CC50 (OVCAR-8; OVCAR-8, read-out: LC50) was > 100000 nM, the GI50 (A498; A498) was 235 nM and the CC50 (A498; A498, read-out: LC50) was 993 nM. For the same molecule, the GI50 (DU-145; DU-145) was 377 nM, the CC50 (DU-145; DU-145, read-out: LC50) was > 100000 nM and the GI50 (HS 578T) was 276 nM. For the same molecule, the CC50 (HS 578T; read-out: LC50) was > 100000 nM, the GI50 (BT-549; BT-549) was 258 nM and the CC50 (BT-549; BT-549, read-out: LC50) was > 100000 nM.
